Measured values published in US5556744A, “Methods and compositions for diagnosing and treating certain HIV infected patients” (The Trustees of the University of Pennsylvania, priority 1994, dated 1996).

How the values were obtained:
HIV-IIIB viral isolate = assay: Neutralization assay (HIV-IIIB, Hut-78 cells, p24 antigen ELISA); format: cell-based, HIV-1 IIIB
Procedure: The H9 cell line (a cutaneous T lymphoma line) infected by HIV-IIIB [ATCC CRL 8543] was used in the neutralization assay. The H9 cell line infected by HIV-MN was used in the anti-syncytial assays. SupT1 and Hut78 cells were used as the target cell lines for the anti-syncytial and neutralization assays. All cell lines were obtained from the National Institutes of Health AIDS Repository (Bethesda, Md.).
In a neutralization assay, 20 μl of maternal sera samples was placed in 96 round bottom well plates at final dilutions of 1:10, 1:90 and 1:810 in RPMI. The HIV-IIIB viral isolate was diluted in RPMI to a TCID50 of 100 units/ml. Twenty μl of the virus solution was placed in each well and the plate was incubated for one hour at 4° C. Hut-78 cells were incubated with 2 μg/ml of polybrene for one hour at 37° C. in a CO2 incubator. The HUT-78 cells were washed and resuspended in fresh RPMI to a final concentration of 4×10^6 cells/ml. Ten μl of the cell suspension was added to each well and the plate was incubated for one hour in a 37° C., CO2 incubator.
Fifteen μl of the serum/cell/virus solution was aliquoted to a new plate containing 200 μl of fresh RPMI and incubated for 6 days. After 6 days, 100 μl was used to analyze for p24 antigen. The p24 capture ELISA assay kit (Coulter Corporation, Hialeah, Fla.) was used to perform the measurements.
Further, sera samples at the same dilutions as described above were tested for residual p24 core protein or antibody to insure the results were due only to viral infection.

[1] = test system: maternal serum samples (antibodies); assay: ELISA peptide-binding of maternal sera, expanded peptide collection (Example 5); set-up: species or system human
Outline: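 Maternal sera diluted 1:50 or 1:500 in 1% BSA/PBS/0.05% Tween 20 were tested by ELISA on 10 μg/mL HIV IIIB gp120/gp41 peptides (~18 residues, ≥85% pure). Binding scored positive at experimental/control OD450nm ratio ≥2; HIV-seronegative human sera served as controls.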

Sequence: TLPCASDAKAYDTEV [Peptide 93]
- Number of samples which bound the peptide and possessed neutralization activity (HIV-IIIB viral isolate; sera which bound the peptide): 3
- Percent of samples which bound the peptide and possessed neutralization activity (HIV-IIIB viral isolate; sera which bound the peptide): 50%
- Binding / reactivity of maternal sera to peptide (in words) ([1]; Example 5): Differences in binding between the transmission and non-transmission groups are noted

Sequence: CFRPGGGDMRDNWREL [Peptide 466]
- Neutralizing activity of non-transmission sera which reacted with the peptide (HIV-IIIB viral isolate; Example 5): All 3 of these sera exhibited neutralizing activity
- Number of samples which bound the peptide and possessed neutralization activity (HIV-IIIB viral isolate; sera which bound the peptide): all of them
- Number of non-transmission sera that reacted with the peptide ([1]; of 13 non-transmission sera): 3
